Patent US20080261994A1, “CYCLOPROPANE COMPOUNDS AND PHARMACEUTICAL USE THEREOF” (Japan Tobacco Inc., priority 2003, published 2008)
Like-named read-outs stand apart in the source and are kept apart here.

Key:
Type in all cases: biochemical
MMP-1 = target: T1, MMP-1 (Homo sapiens, UniProt P03956); test: MMP-1 inhibitory action (Type I collagen Activity Measurement kit, FITC-labeled collagen type I)
T1 sequence (P03956 100-469): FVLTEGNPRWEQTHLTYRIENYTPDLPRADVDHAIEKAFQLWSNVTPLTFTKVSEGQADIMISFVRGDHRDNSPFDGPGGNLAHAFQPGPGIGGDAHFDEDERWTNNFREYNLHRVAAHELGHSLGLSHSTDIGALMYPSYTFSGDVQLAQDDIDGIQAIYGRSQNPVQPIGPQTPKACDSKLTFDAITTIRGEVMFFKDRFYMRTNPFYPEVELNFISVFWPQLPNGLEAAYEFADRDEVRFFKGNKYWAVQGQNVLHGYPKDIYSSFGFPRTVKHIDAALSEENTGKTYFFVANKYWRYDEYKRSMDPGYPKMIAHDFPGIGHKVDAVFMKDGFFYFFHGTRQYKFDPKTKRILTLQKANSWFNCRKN

aggrecanase-1 = target: T2, aggrecanase-1 (Homo sapiens, UniProt O75173); test: Aggrecanase-1 inhibitory action (Particle Assay, GAG release from aggrecan-containing polyacrylamide particles)
T2 sequence (O75173 213-837): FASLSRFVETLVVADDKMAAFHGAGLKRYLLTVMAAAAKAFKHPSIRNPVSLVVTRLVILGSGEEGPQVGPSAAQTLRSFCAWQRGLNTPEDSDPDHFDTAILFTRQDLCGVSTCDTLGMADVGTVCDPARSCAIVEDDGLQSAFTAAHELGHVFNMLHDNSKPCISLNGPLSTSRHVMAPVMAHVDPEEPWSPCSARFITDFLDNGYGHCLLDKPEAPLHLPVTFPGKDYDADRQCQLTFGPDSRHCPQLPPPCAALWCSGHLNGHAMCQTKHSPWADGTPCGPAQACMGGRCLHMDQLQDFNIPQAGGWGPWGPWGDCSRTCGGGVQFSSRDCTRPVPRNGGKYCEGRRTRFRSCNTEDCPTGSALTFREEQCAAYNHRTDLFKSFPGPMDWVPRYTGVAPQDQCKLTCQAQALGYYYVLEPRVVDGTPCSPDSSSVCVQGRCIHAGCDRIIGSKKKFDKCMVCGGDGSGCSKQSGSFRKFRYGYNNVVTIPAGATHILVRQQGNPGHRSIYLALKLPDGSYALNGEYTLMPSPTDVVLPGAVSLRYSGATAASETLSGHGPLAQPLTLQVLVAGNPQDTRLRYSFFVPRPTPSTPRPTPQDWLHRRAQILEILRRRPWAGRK
Method in brief: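 Enzyme and compound incubated with aggrecan-containing polyacrylamide particles in Tris-HCl buffer at 37° C for 15 h. Released GAG in supernatant measured with 1,9-dimethylmethylene blue at 595 nm against chondroitin sulfate standard; % inhibition from enzyme-free and inhibitor-free wells, reported as TC50 (μM).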

Recombinant Human MMP-13 = target: T3, Recombinant Human MMP-13 (Homo sapiens, UniProt P45452); test: MMP-13 inhibitory activity (MMP-13 specific fluorescent substrate with quencher)
T3 construct: purchased R&D systems 511-MM
Method in brief: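 Recombinant human MMP-13 with test compound, reaction started with quenched fluorogenic peptide 7-MCA-Pro-CHA-Gly-NVal-His-Ala-DPA in Tris-HCl buffer, 1 h at 25 °C, stopped with acetic acid. Fluorescence at Ex 325/Em 405 nm; % inhibition versus enzyme-free and inhibitor-free wells, reported as IC50 (μM).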

[1] = Experimental Example 2, read-out: IC50 MMP1
[2] = Experimental Example 1, read-out: IC50 AG1
[3] = Experimental Example 3, read-out: IC50 MMP13
[4] = MMP-1 inhibitory action, FITC-labeled collagen type I, 37° C. for 3 hr, read-out: IC50 MMP1 (Experimental Example 2)
[5] = aggrecanase-1 inhibitory action, read-out: IC50 AG1 (Experimental Example 1)
[6] = Recombinant Human MMP-13, fluorescent substrate, 25° C. for 1 h, read-out: IC50 MMP13 (Experimental Example 3)

Structure (SMILES) | IC50 (MMP-1; [1]) [µM] | IC50 (aggrecanase-1; [2]) [µM] | IC50 (Recombinant Human MMP-13; [3]) [µM] | IC50 (MMP-1; [4]) [µM] | IC50 (aggrecanase-1; [5]) [µM] | IC50 (Recombinant Human MMP-13; [6]) [µM]
O=C(O)C1(NS(=O)(=O)c2ccc(-c3ccc(Cl)cc3)s2)CC1(COCCO)c1ccccc1 (stereo not drawn) [Example 2-347] | ≥ 10 | < 0.1 | < 1 |  |  | 
CC1[C@H](c2ccccc2)[C@]1(NS(=O)(=O)c1ccc(-n2cc(C(C)(C)O)cn2)s1)C(=O)O (stereo partly drawn) [Example 2-523] | < 1 | < 1 | < 0.1 |  |  | 
O=C(O)C1(NS(=O)(=O)c2ccc3c(c2)Cc2cc(Cl)ccc2-3)CC1c1ccccc1 (stereo not drawn) [Example 1-94] |  |  |  | ≥ 1 | < 0.1 | < 0.1
O=C(NCC1(c2ccccc2)CC1(NS(=O)(=O)c1ccc(-c2ccc(Cl)cc2)s1)C(=O)O)c1ccccn1 (stereo not drawn) [Example 2-368] | ≥ 1 | < 1 | < 1 |  |  | 
Cc1nc(-c2ccc(S(=O)(=O)N[C@@]3(C(=O)O)C(C)[C@@H]3c3ccccc3)s2)no1 (stereo partly drawn) [Example 2-451] | ≥ 10 | ≥ 1 | ≥ 1 |  |  | 
O=C(O)[C@]1(NS(=O)(=O)c2ccc(-c3cc4ccccc4s3)s2)C[C@@H]1c1ccccc1 [Example 2-113] |  |  |  | < 1 | < 0.1 | < 0.1
CSCC1(c2ccccc2)CC1(NS(=O)(=O)c1ccc(-c2ccc(Cl)cc2)s1)C(=O)O (stereo not drawn) [Example 2-432] | ≥ 1 | < 0.1 | < 1 |  |  | 
CC1[C@H](c2ccccc2)[C@]1(NS(=O)(=O)c1ccc(-c2ccc(C(F)(F)F)cc2)s1)C(=O)O (stereo partly drawn) [Example 2-590] | ≥ 1 | < 0.1 | < 0.1 |  |  | 
O=C(O)C1(NS(=O)(=O)c2ccc(-c3ccc(Cl)cc3)s2)C2Cc3ccccc3C21 (stereo not drawn) [Example 2-431] | ≥ 1 | < 1 | < 1 |  |  | 
COc1cc2c(cc1OC)CN(S(=O)(=O)N[C@@]1(C(=O)O)C(C)[C@@H]1c1ccccc1)CC2 (stereo partly drawn) [Example 2-528] | ≥ 1 | ≥ 1 | ≥ 1 |  |  | 
Cc1cc(-c2ccc(S(=O)(=O)N[C@@]3(C(=O)O)C(C)[C@@H]3c3ccccc3)s2)no1 (stereo partly drawn) [Example 2-374] | < 1 | < 0.1 | < 0.1 |  |  | 
O=C(Cc1cccc(C2CC2(NS(=O)(=O)c2ccc(-c3cc(C(F)(F)F)on3)s2)C(=O)O)c1)N1CCC(O)CC1 (stereo not drawn) [Example 2-222] |  |  |  | ≥ 1 | < 0.1 | < 0.1
O=C(O)[C@]1(NS(=O)(=O)c2ccc(-c3ccc(Cl)cc3)s2)C[C@@H]1c1cccc(CO)c1 [Example 2-182] |  |  |  | ≥ 10 | < 0.1 | < 0.1
O=C(O)COCC1(c2ccccc2)CC1(NS(=O)(=O)c1ccc(-c2ccc(Cl)cc2)s1)C(=O)O (stereo not drawn) [Example 2-405] | ≥ 10 | < 0.1 | < 1 |  |  | 
O=C(c1cccc(Cl)c1)N1CCN(S(=O)(=O)NC2(C(=O)O)CC2c2ccccc2)CC1 (stereo not drawn) [Example 2-160] |  |  |  | ≥ 10 | ≥ 10 | ≥ 10
CC1[C@H](c2ccccc2)[C@]1(NS(=O)(=O)c1ccc(-c2ccc(Cl)c(N)c2)s1)C(=O)O (stereo partly drawn) [Example 2-496] | < 1 | < 0.1 | < 0.1 |  |  | 
CC(C)SCC1(c2ccccc2)CC1(NS(=O)(=O)c1ccc(-c2ccc(Cl)cc2)s1)C(=O)O (stereo not drawn) [Example 2-349] | ≥ 10 | < 0.1 | < 1 |  |  | 
CC1[C@H](c2ccccc2)[C@]1(NS(=O)(=O)c1ccc(-n2cc(Br)cn2)s1)C(=O)O (stereo partly drawn) [Example 2-494] | < 0.1 | < 0.1 | < 0.1 |  |  | 
O=C(NCC1(c2ccccc2)CC1(NS(=O)(=O)c1ccc(-c2ccc(Cl)cc2)s1)C(=O)O)N1CCOCC1 (stereo not drawn) [Example 2-381] | ≥ 10 | < 1 | < 1 |  |  | 
C#Cc1cnn(-c2ccc(S(=O)(=O)N[C@@]3(C(=O)O)[C@H](C)[C@@H]3c3ccccc3)s2)c1 [Example 2-4, (1S,2R,3R)-1-[5-(4-ethynyl-pyrazole-1-yl)-thiophene-2-sulfonylamino]-2-methyl-3-phenyl-cyclopropanecarboxylic acid] |  |  |  | < 1 | < 0.1 | < 0.1
O=C(O)C1(NS(=O)(=O)c2ccc(-c3ccc(Cl)cc3)cc2)CC1c1cccc(Oc2ccccc2)c1 (stereo not drawn) [Example 1-10] |  |  |  | ≥ 1 | < 1 | < 1
CC1(c2ccc(F)cc2)CC1(NS(=O)(=O)c1ccc(-c2cc(C(F)(F)F)on2)s1)C(=O)O (stereo not drawn) [Example 2-339] | ≥ 1 | < 0.1 | < 1 |  |  | 

Further lines, results first:

IC50 (MMP-1; [1]) [µM] | IC50 (aggrecanase-1; [2]) [µM] | IC50 (Recombinant Human MMP-13; [3]) [µM] | IC50 (MMP-1; [4]) [µM] | IC50 (aggrecanase-1; [5]) [µM] | IC50 (Recombinant Human MMP-13; [6]) [µM] | Structure (SMILES)
≥ 1 | < 1 | < 1 |  |  |  | CCCC(=O)NCC1(c2ccccc2)CC1(NS(=O)(=O)c1ccc(-c2ccc(Cl)cc2)s1)C(=O)O (stereo not drawn) [Example 2-377]
 |  |  | ≥ 10 | ≥ 1 | < 1 | CN1CCN(c2ccc(C3CC3(NS(=O)(=O)c3ccc(-c4ccc(Cl)cc4)s3)C(=O)O)cc2)CC1 (stereo not drawn) [Example 2-246]
≥ 1 | ≥ 1 | ≥ 1 |  |  |  | C[C@]1(c2ccccc2)C[C@@]1(NS(=O)(=O)c1ccc(-c2cccnc2)s1)C(=O)O [Example 2-527]
 |  |  | ≥ 1 | < 0.1 | < 0.1 | O=C(O)[C@]1(NS(=O)(=O)c2ccc(-c3cc(C(F)(F)F)on3)s2)C[C@@H]1c1cccc(Br)c1 [Example 2-169]
≥ 1 | ≥ 1 | ≥ 1 |  |  |  | CC1C(c2ccccc2)C1(NS(=O)(=O)c1ccc(Cc2ccccc2)s1)C(=O)O (stereo not drawn) [Example 2-508]
 |  |  | ≥ 1 | < 1 | < 0.1 | O=C(O)C1(NS(=O)(=O)c2ccc(-c3ccc(Cl)cc3)cc2)CC1c1cccc(OCCO)c1 (stereo not drawn) [Example 1-66]
≥ 1 | < 0.1 | < 1 |  |  |  | CC1C(NS(=O)(=O)c2ccc(-c3cc(C(F)(F)F)on3)s2)(C(=O)O)C1(C)c1ccccc1 (stereo not drawn) [Example 2-598]
 |  |  | ≥ 1 | < 1 | < 0.1 | CN1CCN(C(=O)OCCCc2cccc(C3CC3(NS(=O)(=O)c3ccc(-c4cc(C(F)(F)F)on4)s3)C(=O)O)c2)CC1 (stereo not drawn) [Example 2-238]
< 1 | < 0.1 | < 0.1 |  |  |  | NC(=O)Cc1ccc([C@@H]2C[C@]2(NS(=O)(=O)c2ccc(-c3cc(C(F)(F)F)on3)s2)C(=O)O)cc1 [Example 2-292]
< 1 | < 1 | < 0.1 |  |  |  | COCc1cc(-c2ccc(S(=O)(=O)N[C@@]3(C(=O)O)C[C@]3(C)c3ccccc3)s2)no1 [Example 2-403]
 |  |  | ≥ 1 | < 1 | < 0.1 | CN1CCN(C(=O)CCc2ccccc2C2CC2(NS(=O)(=O)c2ccc(-c3cc(C(F)(F)F)on3)s2)C(=O)O)CC1 (stereo not drawn) [Example 2-232]
≥ 10 | ≥ 1 | ≥ 1 |  |  |  | COCCN(C)CC1(c2ccccc2)CC1(NS(=O)(=O)c1ccc(-c2cc(C(F)(F)F)on2)s1)C(=O)O (stereo not drawn) [Example 2-336]
 |  |  | ≥ 1 | < 0.1 | < 0.1 | O=C(O)C1(NS(=O)(=O)c2ccc(-c3ccc(Cl)cc3)s2)CC1c1cccc(OCc2ccccn2)c1 (stereo not drawn) [Example 1-108]
 |  |  | ≥ 1 | < 0.1 | < 0.1 | O=C(O)COc1cccc(C2CC2(NS(=O)(=O)c2ccc(-c3ccc(Cl)cc3)cc2)C(=O)O)c1 (stereo not drawn) [Example 1-119]
≥ 10 | ≥ 1 | ≥ 10 |  |  |  | Cc1nnc(N2CCN(S(=O)(=O)N[C@@]3(C(=O)O)C(C)[C@@H]3c3ccccc3)CC2)s1 (stereo partly drawn) [Example 2-465]
≥ 1 | < 1 | < 1 |  |  |  | CCOC(=O)c1cc(-c2ccc(S(=O)(=O)N[C@@]3(C(=O)O)C(C)[C@@H]3c3ccccc3)s2)no1 (stereo partly drawn) [Example 2-555]
 |  |  | < 1 | < 0.1 | < 0.1 | CN(Cc1cccnc1)c1cccc(C2CC2(NS(=O)(=O)c2ccc(-c3cc(C(F)(F)F)on3)s2)C(=O)O)c1 (stereo not drawn) [Example 2-214]
